Assay results from patent US9572786B2, “Use of capsiate or dihydrocapsidate” (Catholic University Industry Academy Cooperation Foundation, priority 2007, dated 2017).

Key:
HUVEC [1] = assay: Tube formation on Matrigel; assay type: cell-based, human; settings: 1, 5, 10, 25 μM, VEGF 10 ng/mL, 20 hours
Experimental: The effect of capsiate or dihydrocapsiate on tube formation was investigated according to a method published in the literature [Lee O H et al., 1999, Biochem. Biophys. Res. Commun. 264; 743-750].
In brief, 250 μL of growth factor-reduced Matrigel (10 mg protein/mL) was added to a 16 mm tissue culture well and subjected to polymerization at 37° C. for 30 minutes. HUVEC cultured for in M199 medium containing 1% FBS for 6 hours were treated with trypsin, collected, and resuspended in M199 medium containing 1% FBS. Capsiate or dihydrocapsiate at different concentrations (1 μM, 5 μM, 10 μM, 25 μM) were pre-treated at room temperature for 30 minutes. The cells were added to the Matrigel at a concentration of 1.8×10^5 cells/well and VEGF (10 ng/mL) was added. After culturing for 20 hours, photograph was taken (×200) and the area covered by the tube network was measured according to an optical imaging technique [scanned with Adobe Photoshop and measured with Image-Pro Plus (Media Cybermetics).

HUVEC [2] = assay: [14C] sucrose permeability assay; assay type: cell-based, human; settings: 5, 10, 25 μM, VEGF 50 ng/mL for 1 hour
Experimental: [^14C] sucrose permeability assay was carried out in order to identify the effect of capsiate or dihydrocapsiate on VEGF-induced endothelial permeability. In brief, HUVEC were placed on a transwell filter (Corning Costar). At confluence, the cells were cultured in M199 medium containing 1% FBS for 3 hours. After treating with capsiate or dihydrocapsiate at different concentrations (5 μM, 10 μM, 25 μM) for 30 minutes, the cells were treated with VEGF (50 ng/mL) for 1 hour. [^14C] sucrose (0.8 μCi/mL, 50 μL) was added to the upper compartment. 30 minutes later, the irradiation level was measured at the lower compartment using a scintillation counter (Wallac, PerkinElmer).

JNK = assay: MAPK signaling after UV, Western blotting: JNK; assay type: cell-based, human; settings: HaCaT cells; 10, 25, 50 μM; 30 minutes after UV irradiation
Experimental: Western blotting was performed in the same manner as in Example 2-1 in order to identify the factor that affects the COX-2 expression regulated by capsiate, except for treating the cells with capsiate at different concentrations (10 μM, 25 μM and 50 μM) prior to UV irradiation, and using rabbit anti-ERK antibody, rabbit anti-p-ERK antibody, rabbit anti-p38 antibody, rabbit anti-p-p38 antibody, rabbit anti-JNK antibody and rabbit anti-p-JNK antibody (cell signaling), and anti-rabbit IgG-HRP conjugation antibody (Zymed) as the secondary antibody, 30 minutes after UV irradiation.

TNF-α = assay: UV-induced pro-inflammatory cytokine mRNA, RT-PCR: TNF-α; assay type: cell-based, human; settings: HaCaT cells; 10, 25, 50 μM; UV 100 J/m^2; 4 hours
Experimental: 1×10^6 HaCaT cells were placed on a 100 mm Petri dish and cultured for 24 hours in DMEM containing 10% FBS. Subsequently, the cells were cultured for 24 hours in DMEM containing 1% FBS until starvation. Then, after treating with capsiate at different concentrations (10 μM, 25 μM, 50 μM) for 30 minutes, followed by washing 3 times with PBS, UV was irradiated at an intensity of 100 J/m^2 to induce the production of cytokines. Immediately after the UV irradiation, the cells were washed again with PBS and further cultured for 4 hours in DMEM containing 1% FBS, which was treated with capsiate at the same concentration as in the pre-treatment.
Then, the degree of mRNA expression for IL-6, IL-8 and TNF-α induced mainly in the skin by the UV irradiation was evaluated by RT-PCR in order to measure the inhibition effect against the pro-inflammatory cytokines.
RNAs were extracted from the cells of each test group using Trizol (Invitrogen, USA) and used as template for PCR (PTC-225 Peltier thermal cycler, MJ Research, USA) to prepare cDNAs for each test group. Using the resultant cDNAs as template, the degree of mRNA expression for IL-6, IL-8 and TNF-α was measured by RT-PCR (Roter Gene 6000 series, Corbett Research, Australia) using commercial IL-6, IL-8 and TNF-α primers. […]

hairless mouse = assay: Change of mouse skin tissue after UV, hematoxylin-eosin staining; assay type: in vivo; settings: 4 times of UV irradiation every other day at 2.5 kJ/m^2
Experimental: When the skin is exposed to UV, erythema, or […] of the skin, occurs accompanied by edema, prior to a variety of cellular changes including inflammation, apoptosis, carcinogenesis, or the like [Tadashi Terui, Hachiro Tagami, Mediators of inflammation involved in UVB erythema, Journal of Dermatological Science 23 Suppl. 1 (2000) S1S5]. In order to investigate the effect of capsiate on erythema accompanied by UV-induced inflammatory response, experiment was carried out as follows using hairless mouse. Test groups were as follows: non-treated group—treated with acetone only without UV irradiation; test group A—treated with 200 μL of 1 mM capsiate dissolved in acetone without UV irradiation; UV group—treated with acetone and UV; test group B—treated with UV and 200 μL of 1 mM capsiate dissolved in acetone every 24 hours.
After 4 times of UV irradiation every other day at an intensity of 2.5 kJ/m^2, hematoxylin-eosin staining was carried out in order to observe the change of mouse skin tissue.

Lck = assay: Tyrosine phosphorylation in T cells, Western blotting with anti-PY antibody; assay type: cell-based, C57/BL6 mouse; settings: mouse spleen T cells; 5 and 25 uM; α-CD3 and α-CD4 or α-CD3
Experimental: Western blotting was carried out using anti-tyrosine phosphorylation (anti-PY) antibody in order to investigate the mechanism by which the proliferation of T cells is inhibited by capsiate.
Specifically, 5×10^5 of the T cells isolated in Example 14-1 was placed on a 96-well plate and capsiate was treated at concentrations of 5 and 25 uM. After treating with 2 μg/mL α-CD3 and α-CD4, or 2 μg/mL α-CD3, followed by incubation for 10 minutes in ice and then incubation for 10 minutes at 37° C., centrifuge was carried out. The cells obtained from the centrifuge was lysed using RIPA buffer containing 2 mM EDTA, 137 mM NaCl, 20 mM Tris-HCl (pH 8.0), 1 mM sodium vanadate, 10 mM NaF, 1 mM phenylmethanesulfonyl fluoride (PMSF), 1% NP-40, 10% glycerol and protease inhibitor cocktail, and subjected to SDS-PAGE electrophoresis using 10% acrylamide gel in order to isolate the proteins. The isolated proteins were transferred to a nylon membrane and tyrosine phosphorylated proteins were separated using mouse anti-PY antibody (Becton Dickison, USA) and anti-mouse IgG-HRP conjugation antibody (1; 10,000, Zymed) as the secondary antibody. The isolated proteins were detected by ECL (Amersham, USA) and visualized using RAS 3000 imaging system (Fuji Film, Japan).

Structure (SMILES) | VEGF-induced formation of tube-like structures (HUVEC [1]) | VEGF-increased permeability of endothelial cells (HUVEC [2]) | JNK (phosphorylation) (JNK) | expression of TNF-α (mRNA) increased by UV irradiation (TNF-α) | thickness of the epidermis (hematoxylin-eosin staining) (hairless mouse) | tyrosine phosphorylation in T cells (Lck)
COc1cc(COC(=O)CCCCCCC(C)C)ccc1O [dihydrocapsiate] | reduced | decreased in a concentration-dependent manner | – | – | – | –
COc1cc(COC(=O)CCCC/C=C/C(C)C)ccc1O [capsiate] | reduced | decreased in a concentration-dependent manner | no particular change | significantly decreases | less thick | inhibited
